In patent US4778796A, “ω-(3-pyridyl)alkenamide derivatives and anti-allergenic pharmaceutical compositions containing same” (Dainippon Pharmaceutical Co., Ltd., priority 1985, dated 1988):

Legend:
[1] = test system: passive cutaneous anaphylaxis (PCA); assay: Inhibitory effect on passive cutaneous anaphylaxis (PCA) in rats; type: in vivo, rat (male Wistar); settings: Rattus norvegicus; 20 mg/kg, oral, 1 hour before antigen challenge; read-out: Inhibition (PCA in rats)
Method: (1) Inhibitory effect on passive cutaneous anaphylaxis (PCA) in rats:
This test was carried out by the method of Perper et al. [cf.
Male Wistar rats (130-180 g) were injected with 0.1 ml of a dilute solution of mouse antiserum to egg albumin in two sites of the shaved ventral skin. Forty-eight hours later each rat was challenged by an intravenous injection of 2 mg of the antigen together with 1 ml of a 0.5% Evan's blue saline solution. The rats were sacrificed 30 minutes after the challenge. The area of the blueing lesions was measured on the undersurface of the skin. The average value of the two lesions of each rat was regarded as the response of the rat. Test compounds in a dose of 20 mg/kg, dissolved or suspended in a 0.5% aqueous tragacanth solution, were administered orally 1 hour before the antigen challenge. The inhibitory rate was determined by comparing the responses of the rats given each test compound with those of the rats given only a 0.5% aqueous tragacanth solution. Each group of 3 rats was used for each test compound. The mouse antiserum to egg albumin was produced by the method of Levine and Vaz [cf. Int. Arch. Allergy Appl.

[2] = test system: contact hypersensitivity to oxazolone; assay: Inhibitory effect on contact hypersensitivity to oxazolone in mice; type: in vivo, mouse (male ICR); settings: topical, 24 hours after challenge
Method: (3) Inhibitory effect on contact hypersensitivity to oxazolone in mice:
This test was carried out by the method of Evans et al. [cf. Brit.
Male ICR mice (18-20 g) were used. The abdominal region of the mice was carefully clipped with an electric clipper, and 0.1 ml of a 0.5 w/v % oxazolone solution in absolute ethanol was gently rubbed into the clipped area. Five days after the sensitization 20 μl of a 0.5 w/v % oxazolone solution in acetone or chloroform, or the solution containing test compound was applied to both sides of the right ear. The left ear was not treated. Twenty-four hours after the challenge, the animals were sacrificed with diethyl ether. The circular parts (5.5 mm in diameter) of both ears were removed by punching and then weighed. The inhibitory rate was determined by comparing the ear swelling of the mice treated with oxazolone containing test compound with that of the mice treated with oxazolone. Each group of 8 mice was used for each dose of the test compound.

[3] = test system: histamine-induced contraction of isolated guinea pig trachea; assay: Inhibitory effect on histamine-induced contraction of isolated guinea pig trachea; design: species or system guinea pig (male Hartley)
Method: (2) Inhibitory effect on histamine-induced contraction of isolated guinea pig trachea:
Male Hartley guinea pigs (400-700 g) were used. Zig-zag strips of guinea pig trachea were prepared by the method of Emmerson and Mackay [cf. J. Pharm. […] Dose-response curves for histamine were obtained before and 5 minutes after the addition of test compounds. Inhibitory rate was calculated from contraction heights in 3×10^-5 M of histamine without vs. with test compound.

human basophils = assay: Inhibitory effect on histamine release induced by anti-human IgE antibody from healthy human basophils; type: cell-based
Method: (3) Inhibitory effect on histamine release induced by anti-human IgE antibody from healthy human basophils:
Basophils from nonallergic volunteers were collected by the method of Levy and Osler [cf. […] The cells were washed once with a cold Tris-A buffer at pH 7.4 (25 mM Tris, 120 mM NaCl, 5 mM KCl and 0.03% human serum albumin) containing 4 mM EDTA and twice with Tris-A buffer. After washing, the cells were resuspended at 5-10×10^6 leukocytes/ml in Tris-ACM buffer at pH 7.6 (Tris-A buffer, 0.6 mM CaCl2 and 1 mM MgCl2). One ml of the cell suspension was incubated with 0.1 ml of a solution of test compound or vehicle for 15 minutes at 37° C., and then for further 45 minutes with 0.1 ml of anti-human IgE antibody. After ice-cooling, the reaction mixtures were centrifuged at 1,200 rpm for 8 minutes at 4° C. The supernatant fluids and the cells were analysed separately for histamine by a modification of the spectrophotofluorometric technique of Shore et al. [cf. […] Histamine release rate was calculated according to the following equation. [formula] A: total histamine (supernatant+cell) B: supernatant histamine without anti-IgE
C: supernatant histamine with anti-IgE
Inhibitory rate was calculated from histamine release rates without vs. with test compound.

[4] = Acute lethal toxicity in mice; settings: mouse, in vivo; oral, mortality observed for two weeks
Method: Test 3 Acute lethal toxicity in mice
Test compounds were suspended in a 0.5% aqueous tragacanth solution. LD50 values were calculated according to the method of Litchfield and Wilcoxon [cf. J. Pharmacol. Exp. Ther., 96, 99 (1949)].

[5] = compared with ketotifen fumarate

Cc1ccc(C=CC(=O)NCCCCN2CCN(C(c3ccccc3)c3ccccc3)CC2)cn1 [Example 2, N-[3-(6-methyl-3-pyridyl)acryloyl]-4-(4-diphenylmethyl-1-piperazinyl)butylamine]
inhibition in vivo at 20 mg/kg [1]: 81.9%
% Inhibition of ear swelling ([2]; 0.3 mg/ear): 40.8%
% Inhibition of ear swelling ([2]; 1.0 mg/ear): 90.0%
IC50 ([3]; 3×10^-5 M histamine, isolated guinea pig trachea, read-out: Anti-hist. activity IC50): 1.1 µM
antihistamine activity (in words) [3, 5]: potent antihistamine activity, though fairly inferior to that of ketotifen fumarate
IC50 (human basophils; anti-human IgE antibody, human basophils, read-out: Histamine release inhibit. IC50): 34 µM
ability to inhibit histamine release (in words) (human basophils; [5]): superior to ketotifen fumarate in the ability to inhibit histamine release
LD50 at 336 h [4]: 601 mg/kg
